Measured values taken from patent US20150071989A1, “LIPOSOMES FOR HEMATOLOGICAL TUMORS” (University of Tennessee Research Foundation, priority 2013, published 2015).

Assays:
[1] = test system: Jurkat cells; experiment: MTT cell viability assay, in vitro cytotoxicity in CD22- Jurkat cells; format: cell-based; details: Homo sapiens
Procedure: FIG. 14A is a graph showing the in vitro cytotoxicity of targeted, drug-loaded liposomes (solid line, “CD22 Targeted NP”) and untargeted, drug-loaded liposomes (dotted line, “Untargeted NP”) in Jurkat cells after 24 hours. The Jurkat cells lack the cell surface antigen (CD22) to which the antibody of the targeted liposomes binds. For comparison, the in vitro cytotoxic effects of free (solution) drug (N-benzyladriamycin-14-valerate (AD198)) are also shown (dashed line, “Solution Drug”). Cytotoxicity is expressed as percentage (%) cell kill as measured via (3-(4,5-dimethylthiazol-2-yl)-2,5-diphenyltetrazolium bromide (MTT) cell viability assay. The data represents the average of three measurements; the error bars represent±standard deviation.
FIG. 15A is a graph showing the in vitro cytotoxicity of targeted, drug-loaded liposomes (solid line, “CD22 Targeted NP”) and untargeted, drug-loaded liposomes (dotted line, “Untargeted NP”) in Jurkat cells after 48 hours. […] Cytotoxicity is expressed as percentage (%) cell kill as measured via (3-(4,5-dimethylthiazol-2-yl)-2,5-diphenyltetrazolium bromide (MTT) assay. The data represents the average of three measurements; the error bars represent±standard deviation.
In vitro efficacy of the liposomes was also studied using the MTT assay to assess cell viability. […] IC50 concentrations were also calculated for the solution drug and the targeted liposome. […]

[2] = test system: Daudi cells; experiment: MTT cell viability assay, in vitro cytotoxicity in CD22+ Daudi cells; format: cell-based; details: Homo sapiens
Procedure: FIG. 14B is a graph showing the in vitro cytotoxicity of targeted, drug-loaded liposomes (solid line, “CD22 Targeted NP”) and untargeted, drug-loaded liposomes (dotted line, “Untargeted NP”) in Daudi cells after 24 hours. The Daudi cells have the cell surface antigen (CD22) to which the antibody of the targeted liposomes binds. For comparison, the in vitro cytotoxic effects of free (solution) drug (N-benzyladriamycin-14-valerate (AD198)) are also shown (dashed line, “Solution Drug”). Cytotoxicity is expressed as percentage (%) cell kill as measured via (3-(4,5-dimethylthiazol-2-yl)-2,5-diphenyltetrazolium bromide (MIT) cell viability assay. The data represents the average of three measurements; the error bars represent±standard deviation.
FIG. 15B is a graph showing the in vitro cytotoxicity of targeted, drug-loaded liposomes (solid line, “CD22 Targeted NP”) and untargeted, drug-loaded liposomes (dotted line, “Untargeted NP”) in Daudi cells after 48 hours. The Daudi cells have the cell surface antigen (CD22) to which the antibody of the targeted liposomes binds. […] Cytotoxicity is expressed as percentage (%) cell kill as measured via (3-(4,5-dimethylthiazol-2-yl)-2,5-diphenyltetrazolium bromide (MTT) cell viability assay. The data represents the average of three measurements; the error bars represent±standard deviation. […]

## CCCCC(=O)OCC(=O)[C@]1(O)Cc2c(O)c3c(c(O)c2[C@@H](O[C@H]2C[C@H](NCc4ccccc4)[C@H](O)[C@H](C)O2)C1)C(=O)c1c(OC)cccc1C3=O [AD198, N-benzyladriamycin-14-valerate]
[1]; Jurkat cells (CD22-), 24 hours
  IC50: 1050 nM
[1]; Jurkat cells, 48 hours
  IC50: 100 nM
[2]; Daudi cells (CD22+), 24 hours
  IC50: 250 nM
[2]; Daudi cells, 48 hours
  IC50: 100 nM
